Reference: publication doi:10.1101/2023.03.24.534094v2 (biorxiv, 2023)
Where two headings read alike, the source gives them in different places. One block for each molecule: values may come before it.

Key:
Test in all cases: biochemical
EphB1 = target: T1, EphB1 (Homo sapiens, UniProt P54762)
T1 sequence (P54762 1-984): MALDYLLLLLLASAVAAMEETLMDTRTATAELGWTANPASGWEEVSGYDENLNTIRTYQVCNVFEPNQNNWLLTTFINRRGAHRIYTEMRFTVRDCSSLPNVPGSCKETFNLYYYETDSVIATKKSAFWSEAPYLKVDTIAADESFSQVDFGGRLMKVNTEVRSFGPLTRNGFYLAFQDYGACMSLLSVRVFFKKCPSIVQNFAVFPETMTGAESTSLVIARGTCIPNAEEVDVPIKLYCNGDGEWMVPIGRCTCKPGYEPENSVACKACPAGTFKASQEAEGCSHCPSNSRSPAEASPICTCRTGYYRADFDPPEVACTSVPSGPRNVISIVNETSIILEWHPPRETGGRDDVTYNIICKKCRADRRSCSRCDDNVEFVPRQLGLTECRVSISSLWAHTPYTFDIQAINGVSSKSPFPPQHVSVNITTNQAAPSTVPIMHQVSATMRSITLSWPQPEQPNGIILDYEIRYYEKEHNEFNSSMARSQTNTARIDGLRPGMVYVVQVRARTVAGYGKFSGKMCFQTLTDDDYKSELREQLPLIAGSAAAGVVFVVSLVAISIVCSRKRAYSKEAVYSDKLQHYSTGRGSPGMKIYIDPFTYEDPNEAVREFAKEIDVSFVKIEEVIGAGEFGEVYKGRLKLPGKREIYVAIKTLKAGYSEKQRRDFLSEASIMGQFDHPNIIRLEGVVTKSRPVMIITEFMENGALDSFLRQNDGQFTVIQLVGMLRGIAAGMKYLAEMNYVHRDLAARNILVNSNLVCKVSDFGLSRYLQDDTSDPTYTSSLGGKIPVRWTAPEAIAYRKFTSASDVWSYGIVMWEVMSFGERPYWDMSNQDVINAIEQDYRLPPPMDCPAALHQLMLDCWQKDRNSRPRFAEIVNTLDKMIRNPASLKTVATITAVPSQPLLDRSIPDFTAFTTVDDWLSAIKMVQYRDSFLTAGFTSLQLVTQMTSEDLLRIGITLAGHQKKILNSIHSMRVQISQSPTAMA

LOK = LOK (Homo sapiens, UniProt O94804)
Chain of LOK (O94804 whole entry): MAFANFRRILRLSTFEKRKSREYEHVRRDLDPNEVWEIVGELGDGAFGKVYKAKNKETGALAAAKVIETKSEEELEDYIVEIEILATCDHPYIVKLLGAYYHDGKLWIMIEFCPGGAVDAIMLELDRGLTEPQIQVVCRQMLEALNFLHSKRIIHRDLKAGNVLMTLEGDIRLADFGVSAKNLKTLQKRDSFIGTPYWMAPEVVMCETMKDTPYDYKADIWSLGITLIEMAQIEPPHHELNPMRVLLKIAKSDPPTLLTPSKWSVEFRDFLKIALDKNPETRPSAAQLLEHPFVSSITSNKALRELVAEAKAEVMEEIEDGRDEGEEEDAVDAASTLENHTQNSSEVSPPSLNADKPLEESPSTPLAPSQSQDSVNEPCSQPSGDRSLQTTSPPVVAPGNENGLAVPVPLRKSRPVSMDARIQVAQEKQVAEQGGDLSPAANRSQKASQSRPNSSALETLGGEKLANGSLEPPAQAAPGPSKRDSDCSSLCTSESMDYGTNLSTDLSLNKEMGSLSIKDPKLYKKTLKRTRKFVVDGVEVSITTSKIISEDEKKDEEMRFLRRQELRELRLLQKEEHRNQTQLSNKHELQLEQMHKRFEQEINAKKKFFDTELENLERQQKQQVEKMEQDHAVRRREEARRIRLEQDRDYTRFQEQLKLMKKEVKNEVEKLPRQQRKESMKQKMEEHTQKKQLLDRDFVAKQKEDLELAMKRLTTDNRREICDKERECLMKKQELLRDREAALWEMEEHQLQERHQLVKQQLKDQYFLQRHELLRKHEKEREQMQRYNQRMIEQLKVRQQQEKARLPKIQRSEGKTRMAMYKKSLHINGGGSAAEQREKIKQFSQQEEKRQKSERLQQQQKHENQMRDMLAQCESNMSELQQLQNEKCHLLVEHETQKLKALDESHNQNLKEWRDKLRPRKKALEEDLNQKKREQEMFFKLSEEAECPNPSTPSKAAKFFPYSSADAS

MAP3K5 = target: T2, MAP3K5 (Homo sapiens, UniProt Q99683)
T2 sequence (Q99683 1-1374): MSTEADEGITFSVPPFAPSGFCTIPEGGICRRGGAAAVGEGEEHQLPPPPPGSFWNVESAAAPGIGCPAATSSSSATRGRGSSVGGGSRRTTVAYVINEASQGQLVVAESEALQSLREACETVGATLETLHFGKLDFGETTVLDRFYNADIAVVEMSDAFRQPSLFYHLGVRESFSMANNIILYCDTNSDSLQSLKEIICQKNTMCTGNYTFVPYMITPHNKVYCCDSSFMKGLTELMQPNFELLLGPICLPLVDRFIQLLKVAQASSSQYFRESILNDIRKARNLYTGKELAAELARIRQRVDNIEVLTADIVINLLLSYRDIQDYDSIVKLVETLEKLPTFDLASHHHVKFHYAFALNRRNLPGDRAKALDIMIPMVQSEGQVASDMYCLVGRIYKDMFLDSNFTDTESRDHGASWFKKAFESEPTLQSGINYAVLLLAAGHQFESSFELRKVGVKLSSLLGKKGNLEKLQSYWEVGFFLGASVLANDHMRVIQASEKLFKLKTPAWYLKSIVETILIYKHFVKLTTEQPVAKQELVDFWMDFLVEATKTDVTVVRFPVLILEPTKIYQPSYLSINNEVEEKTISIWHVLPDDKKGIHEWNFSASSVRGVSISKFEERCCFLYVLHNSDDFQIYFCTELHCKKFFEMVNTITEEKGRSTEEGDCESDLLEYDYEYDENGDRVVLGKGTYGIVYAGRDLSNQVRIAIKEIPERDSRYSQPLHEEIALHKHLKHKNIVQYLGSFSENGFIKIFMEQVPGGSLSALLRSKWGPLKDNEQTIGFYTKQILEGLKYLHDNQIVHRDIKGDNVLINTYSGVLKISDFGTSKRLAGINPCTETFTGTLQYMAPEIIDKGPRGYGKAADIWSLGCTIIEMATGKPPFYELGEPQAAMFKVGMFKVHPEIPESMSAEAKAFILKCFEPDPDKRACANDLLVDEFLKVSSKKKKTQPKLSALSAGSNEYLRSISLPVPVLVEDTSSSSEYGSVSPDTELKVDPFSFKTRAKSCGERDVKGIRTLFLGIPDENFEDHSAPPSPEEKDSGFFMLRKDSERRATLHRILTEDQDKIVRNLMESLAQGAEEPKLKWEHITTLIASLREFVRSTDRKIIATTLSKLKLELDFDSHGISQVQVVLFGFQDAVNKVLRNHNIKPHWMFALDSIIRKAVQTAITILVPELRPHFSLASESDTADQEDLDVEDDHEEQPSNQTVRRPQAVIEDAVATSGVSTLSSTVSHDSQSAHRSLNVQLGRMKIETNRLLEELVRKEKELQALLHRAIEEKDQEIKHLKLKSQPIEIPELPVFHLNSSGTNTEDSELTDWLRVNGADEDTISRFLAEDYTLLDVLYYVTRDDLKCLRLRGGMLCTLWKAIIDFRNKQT

MAPKAPK2 = MAPKAPK2 (Homo sapiens, UniProt P49137)
Chain of MAPKAPK2 (P49137 whole entry): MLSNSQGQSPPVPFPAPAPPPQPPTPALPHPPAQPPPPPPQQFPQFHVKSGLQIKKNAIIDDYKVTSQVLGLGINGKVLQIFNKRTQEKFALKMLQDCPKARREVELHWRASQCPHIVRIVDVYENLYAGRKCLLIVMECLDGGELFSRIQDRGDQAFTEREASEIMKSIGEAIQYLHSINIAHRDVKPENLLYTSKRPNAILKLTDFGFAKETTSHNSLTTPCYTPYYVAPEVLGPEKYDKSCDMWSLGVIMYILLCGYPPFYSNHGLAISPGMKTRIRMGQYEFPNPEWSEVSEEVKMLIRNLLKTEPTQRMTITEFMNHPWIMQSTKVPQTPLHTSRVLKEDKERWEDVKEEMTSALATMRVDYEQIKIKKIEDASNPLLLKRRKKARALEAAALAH

PAK4 = PAK4 (Homo sapiens, UniProt O96013)
Chain of PAK4 (O96013 whole entry): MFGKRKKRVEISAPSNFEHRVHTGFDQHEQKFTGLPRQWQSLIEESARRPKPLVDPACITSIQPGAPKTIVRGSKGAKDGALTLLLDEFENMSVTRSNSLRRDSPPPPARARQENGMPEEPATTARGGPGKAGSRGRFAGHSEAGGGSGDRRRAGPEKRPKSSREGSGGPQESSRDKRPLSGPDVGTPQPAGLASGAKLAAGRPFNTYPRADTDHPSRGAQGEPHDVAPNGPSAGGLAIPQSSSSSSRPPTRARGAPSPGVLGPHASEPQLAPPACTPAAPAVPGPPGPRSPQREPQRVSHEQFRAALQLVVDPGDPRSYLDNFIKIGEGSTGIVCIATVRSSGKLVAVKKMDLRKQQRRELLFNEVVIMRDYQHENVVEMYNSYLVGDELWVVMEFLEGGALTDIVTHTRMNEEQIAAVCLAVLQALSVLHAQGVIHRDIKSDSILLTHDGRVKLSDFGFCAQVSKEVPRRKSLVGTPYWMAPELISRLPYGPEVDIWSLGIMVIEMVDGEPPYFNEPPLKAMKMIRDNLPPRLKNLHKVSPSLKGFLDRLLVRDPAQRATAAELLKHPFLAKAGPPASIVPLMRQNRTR

Structure (SMILES): CNc1ncc2cc(-c3ccc(-c4cccc(C)n4)cc3Cl)c(=O)n(CC3OCC(N)CO3)c2n1 (stereo not drawn) [compound 2, G-5555]
- dTm G-5555 (2) (LOK; 10 µM, binder): 10.2 °C
- dTm G-5555 (2) (MAP3K5; 10 µM, binder): 8.9 °C
- dTm G-5555 (2) (MAPKAPK2; 10 µM, binder): -0.3 °C
- dTm G-5555 (2) (PAK4; 10 µM, binder): 3.5 °C

Structure (SMILES): CNc1ncc2cc(-c3cc(F)ccc3F)c(=O)n(CCCCN)c2n1 [compound 5, 8-(4-Aminobutyl)-6-(2,5-difluorophenyl)-2-(methylamino)pyrido[2,3-d]pyrimidin-7(8H)-one]
- ΔTm at 10 µM (EphB1; read-out: dTm MR22 (5)): 4.5 °C
- ΔTm at 10 µM (LOK; read-out: dTm MR22 (5)): -0.4 °C
- ΔTm at 10 µM (MAP3K5; read-out: dTm MR22 (5)): 1 °C
- ΔTm at 10 µM (MAPKAPK2; read-out: dTm MR22 (5)): -0.1 °C
- ΔTm at 10 µM (PAK4; read-out: dTm MR22 (5)): 0.2 °C

Structure (SMILES): CNc1ncc2cc(-c3ccccc3Cl)c(=O)n(CCCCN)c2n1 [compound 4, 8-(4-Aminobutyl)-6-(2-chlorophenyl)-2-(methylamino)pyrido[2,3-d]pyrimidin-7(8H)-one]
- ΔTm at 10 µM (EphB1; read-out: dTm MR21 (4)): 3.6 °C
- ΔTm at 10 µM (LOK; read-out: dTm MR21 (4)): 5.4 °C
- ΔTm at 10 µM (MAP3K5; read-out: dTm MR21 (4)): 2.9 °C
- ΔTm at 10 µM (MAPKAPK2; read-out: dTm MR21 (4)): 0.1 °C
- ΔTm at 10 µM (PAK4; read-out: dTm MR21 (4)): 2.8 °C

The next lines start with the values.

- ΔTm at 10 µM (EphB1; read-out: dTm 7): 3.1 °C
- ΔTm at 10 µM (LOK; read-out: dTm 7): 2.1 °C
- ΔTm at 10 µM (MAP3K5; read-out: dTm 7): 0.8 °C
- ΔTm at 10 µM (MAPKAPK2; read-out: dTm 7): 0 °C
- ΔTm at 10 µM (PAK4; read-out: dTm 7): 0.5 °C
Structure (SMILES): CNc1ncc2cc(-c3cc(Br)ccc3Cl)c(=O)n(C[C@H]3OC[C@H](N)CO3)c2n1 [compound 7, 8-(((2r,5r)-5-Amino-1,3-dioxan-2-yl)methyl)-6-(5-bromo-2-chlorophenyl)-2-(methylamino)pyrido[2,3-d]pyrimidin-7(8H)-one]

- ΔTm at 10 µM (EphB1; read-out: dTm 6): 4.7 °C
- ΔTm at 10 µM (LOK; read-out: dTm 6): 2.4 °C
- ΔTm at 10 µM (MAP3K5; read-out: dTm 6): 0.9 °C
- ΔTm at 10 µM (MAPKAPK2; read-out: dTm 6): -0.7 °C
- ΔTm at 10 µM (PAK4; read-out: dTm 6): 1.1 °C
Structure (SMILES): CNc1ncc2cc(-c3cc(Br)ccc3Cl)c(=O)n(CCCCN)c2n1 [compound 6, 8-(4-Aminobutyl)-6-(5-bromo-2-chlorophenyl)-2-(methylamino)pyrido[2,3-d]pyrimidin-7(8H)-one]
